Assay results taken from article PMC12880750, “Mechanistic insights and in vivo HIV suppression by the BRD4-targeting small molecule ZL0580” (PLOS Pathogens, 2026).

Key:
HIV-1 JR-CSF = assay: HIV suppression in HIV-infected humanized mice (plasma viral load); format: in vivo, CD34+ Hu-NSG mice (Hu-mice)
Procedure: Next, at week 0, all12 Hu-mice were intravenously inoculated with a single dose of HIV-1 JR-CSF (equivalent to 10 ng HIV p24 antigen per animal) (Fig 6A). Systemic HIV infection was confirmed in 11 out of the 12 mice at weeks 2 and 3 after HIV inoculation, based on the detection of plasma viral RNAs by a single-step RT-qPCR (Fig 6B-6C). Systemic HIV infection in the Hu-mice was also confirmed by ELISA quantification of plasma HIV p24 antigens at weeks 2 and 3 after HIV inoculation (Fig F in S1 Text). The 11 Hu-mice with successful HIV infection were then randomized into four treatment groups at week 3: empty vehicle control (EV) (n = 2), ART (n = 3), ZL0580 (n = 3), and ART + ZL0580 (n = 3). Drug formulations included: ART (Raltegravir 1.2 mg/mouse, Emtricitabine 3.2 mg/mouse, Tenofovir 3.2 mg/mouse), ZL0580 (3.8 mg/mouse), and a combination of both ART + ZL0580 (same concentration of individual compounds). All drugs were formulated in the buffer consisting of 10% DMSO, 10% Solutol HS 15, and 80% HP-β-CD (20%, w/v). The empty vehicle (EV) group received only the formulation buffer. Treatment regimens were initiated at week 3 and administered daily by intraperitoneal injection (Fig 6A). Plasma viral loads were closely monitored during the treatments.
All humanized mice used in this study weighed approximately 20 grams, and drug dosages were calculated accordingly. The following compounds were administered to mice daily: Raltegravir (Ral) at 60mg/kg (1.2 mg/mouse), Emtricitabine (Emt) at 160mg/kg (3.2 mg/mouse), Tenofovir (Ten) at 160mg/kg (3.2 mg/mouse), and ZL0580 at […] (3.8 mg/mouse). ART drugs were purchased from MedChemExpress. ZL0580 was synthesized in-house as previously reported. All compounds were dissolved in a formulation vehicle composed of 10% DMSO, 10% Solutol HS 15, and 80% hydroxypropyl-β-cyclodextrin (HP-β-CD, 20% w/v). Compounds were administered via intraperitoneal injection daily.
Mice were 16-week-old at the initiation of the experiments. All mice received human CD34 + stem cells of a single donor and human immune cell reconstitution was confirmed for all mice. A total of 12 Hu-mice were initially included in the study with each tagged and assigned with a unique ID. At week 0, all Hu-mice were intravenously (IV) infected with HIV-1 JR-CSF at a single dose of 10ng HIV p24 equivalent virus per animal. Blood/plasma viral loads were monitored and quantified weekly by a single-step RT-qPCR until systemic HIV infection was established. […] At week 3, the remaining 11 Hu-mice were randomized into four groups for subsequent treatments: Empty Vehicle (EV) (n = 2), ART (n = 3), ZL0580 (n = 3), and ART + ZL0580 (n = 3). The control mice received a mixture of DMSO, Solutol HS 15, and hydroxypropyl-β-cyclodextrin (HP-β-CD, 20% w/v), which was considered the empty vehicle control (EV). ART and ZL0580 compounds were administered to mice via intraperitoneal injection daily for four weeks (from week 3 to week 7). […] Plasma samples were collected from mice either weekly or biweekly for quantification of viral loads (RNA copies). Blood cells were also collected at weeks 7 and 13 for quantification of cell-associated HIV DNA in blood. Mouse weights were monitored after treatment.
Viral RNA was isolated from plasma samples using the QIAamp Viral RNA Mini Kit (Qiagen) according to the manufacturer’s instructions. Quantification of viral RNA was performed using the PrimeTime One-Step RT-qPCR Master Mix (IDT) on a CFX Connect Real-Time PCR System (Bio-Rad). […]

[1] = tested on: WT J-Lat cells (Clone […]); assay: RT-qPCR validation of differentially expressed genes, WT J-Lat cells; format: cell-based, human; conditions: 5 μM, 24 h, normalized to GAPDH
Procedure: To validate the RNA-Seq results, RT-qPCR analysis was performed on a subset of differentially expressed genes (DEGs) (Fig 3E). Eight representative DEGs were selected based on statistical significance (adjusted p values) and their involvement in key pathways identified by GSEA, including lipid metabolism/cholesterol biosynthesis (HMGCS1, SQLE, DHCR7) and cytokine signaling (ITK and DUSP8). Relative gene expression levels were normalized to the housekeeping gene GAPDH. […] As an additional control, RT-qPCR was also performed on RNA isolated from BRD4-knockout (KO) J-Lat cells that received the same treatments. The generation and characterization of BRD4-KO J-Lat cells were described previously.
RT-qPCR was performed as previously reported.

Question: Which “Delay of viral rebound following TI compared to ART alone” value (HIV-1 JR-CSF; ZL0580 monotherapy) does the source give for O=C(Nc1ccc(C(F)(F)F)cc1)Nc1ccc(S(=O)(=O)N2CCC[C@H]2C(=O)Nc2ccccc2)cc1 [ZL0580] here?
Answer: ~ 2 weeks

Question: And the “Plasma viral loads at week 5” value (HIV-1 JR-CSF; after two weeks of daily i.p. treatment, ZL0580 3.8 mg/mouse, ART Raltegravir 1.2, Emtricitabine 3.2, Tenofovir 3.2 mg/mouse)?
Answer: nearly undetectable levels

Question: And the “Plasma viral copies at week 7 (mean ± SEM)” value (HIV-1 JR-CSF; end of 4 weeks daily i.p. treatment, n = 3 per group)?
Answer: 105 ± 28 HIV RNA copies/ml

Question: What about the “Area under the curve (AUC) of viral loads after TI, weeks 7 to 15, compared to EV control” value (HIV-1 JR-CSF; one-way ANOVA) of the same compound?
Answer: significantly suppressed viral rebounds

Question: What about the “Plasma mean viral copies at week 9” value (HIV-1 JR-CSF; two weeks post treatment interruption (TI)) of the same compound?
Answer: undetectable

Question: And the “Expression of HMGCS1, SQLE, DHCR7, ASS1, ITK, DUSP8 relative to NC” value [1]?
Answer: upregulated

Question: And the “Expression of KLF10 and WDR52 relative to NC” value [1]?
Answer: downregulated
